Assay results from paper PMC9482650, “Quantitative fragmentomics allow affinity mapping of interactomes” (Nature Communications, 2022).
Read-outs that look alike come from different tables or passages of the source. Ends that are not written are not given here.

Columns and labels:
[1] = target: SNX27 PDZ (Homo sapiens, UniProt Q96L92); assay: Holdup assay; assay type: binding
[2] = target: DLG1_2 PDZ (Homo sapiens, UniProt Q12959); assay: Holdup assay; assay type: binding
[3] = target: SCRIB_1 PDZ (Homo sapiens, UniProt Q14160); assay: Holdup assay; assay type: binding
[4] = target: T1, TX1BP3 PDZ (Homo sapiens, UniProt O14907); assay: Holdup assay; assay type: binding
T1 sequence (O14907 15-112 limits assumed): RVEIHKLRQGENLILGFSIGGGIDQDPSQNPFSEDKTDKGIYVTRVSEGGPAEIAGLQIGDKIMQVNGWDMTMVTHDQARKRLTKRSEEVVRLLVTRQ

[5] = target: DLG1_1 PDZ (Homo sapiens, UniProt Q12959); assay: Holdup assay; assay type: binding
[6] = target: T2, SCRIB2 PDZ (Homo sapiens, UniProt Q14160); assay: Holdup assay; assay type: binding
T2 sequence (Q14160 862-950 limits assumed): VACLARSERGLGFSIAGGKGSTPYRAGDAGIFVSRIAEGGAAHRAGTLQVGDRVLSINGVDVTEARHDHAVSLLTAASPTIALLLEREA

[7] = target: Htra1; conditions: SPR; ref Murwantoko et al 2004; cited from earlier work
Text: (§1) Supplement 41467_2022_33018_MOESM4_ESM.xlsx, sheet "reference DMI interactome" | column: Affinity (mM); pKd, measured in literature

[8] = target: Htra2; conditions: SPR; ref Murwantoko et al 2004; cited from earlier work
Text: as §1

[9] = target: T3, MAST2 PDZ (Homo sapiens, UniProt Q6P0Q8); assay: biochemical; assay type: binding
T3 sequence (Q6P0Q8 1104-1192 limits assumed): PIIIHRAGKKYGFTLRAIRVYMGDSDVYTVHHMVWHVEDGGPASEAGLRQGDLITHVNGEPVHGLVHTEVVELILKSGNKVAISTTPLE

[10] = target: T4, SYNJ2BP PDZ (Homo sapiens, UniProt P57105); assay: Holdup assay; assay type: binding
T4 sequence (P57105 13-100 limits assumed): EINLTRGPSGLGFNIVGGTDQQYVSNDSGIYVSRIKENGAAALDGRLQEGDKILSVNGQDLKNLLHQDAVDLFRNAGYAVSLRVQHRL

[11] = system: HEK293T cells; assay: Label-free MS proteome of stable cell lines expressing HPV16 E6 or E6ΔPBM; assay type: cell-based, human; conditions: protein level
Method in brief: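 Confluent HEK293T lysates in HEPES-KOH pH 7.5, 1% Triton X-100 buffer, TCA-precipitated, reduced, alkylated, Lys-C then trypsin digested. nanoLC (90 min gradient) on LTQ-Orbitrap Elite, TOP20 CID data-dependent acquisition; SequestHT search of human SwissProt, 1% FDR. Label-free quantification by peptide XIC intensity, technical triplicates.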

[12] = PBM motif of the named protein vs DLG1_2 PDZ, read-out: pKd values – domain-motif, DLG1_2 (converted)
[13] = PBM motif of the named protein vs SCRIB_1 PDZ, read-out: pKd values – domain-motif, SCRIB_1 (converted)
[14] = PBM motif of the named protein vs TX1BP3 PDZ, read-out: pKd values – domain-motif, TX1BP3 (converted)
[15] = PBM motif of the named protein vs DLG1_1 PDZ, read-out: pKd values – domain-motif, DLG1_1 (converted)
[16] = PBM motif of the named protein vs SCRIB_2 PDZ, read-out: pKd values – domain-motif, SCRIB_2 (converted)
[17] = holdup affinity of the PBM peptide of the named protein, sheet PBMcomplexome, lower sub-table
[18] = holdup affinity of the PBM peptide of the named protein, sheet PBMcomplexome, lower sub-table, 3.5 appears to be the floor for no detectable binding, read-out: affinity of PBM to DLG1_2 (pKd) (converted)
[19] = holdup affinity of the PBM peptide of the named protein, sheet PBMcomplexome, lower sub-table, 3.5 appears to be the floor for no detectable binding, read-out: affinity of PBM to SCRIB_1 (pKd) (converted)
[20] = holdup affinity of the PBM peptide of the named protein, sheet PBMcomplexome, lower sub-table, 3.5 appears to be the floor for no detectable binding, read-out: affinity of PBM to TX1BP3 (pKd) (converted)

Chain of SCRIB_1 PDZ (Q14160 728-815 limits assumed): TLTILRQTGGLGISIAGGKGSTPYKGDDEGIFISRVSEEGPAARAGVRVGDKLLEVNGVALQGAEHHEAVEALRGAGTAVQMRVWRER

Compound	Kd [1]	Kd [2, 12]	Kd [3, 13]	Kd [4, 14]	Kd [5, 15]	Kd [6, 16]	Kd [1, 17]	further results
FHPLGADSQV [SLC2A1]	89.1 µM	132 µM	95.5 µM	170 µM	–	–	–	–
QSARYRDTEL [TJP2 (ZO2)]	20.4 µM	170 µM	34.7 µM	17.4 µM	209 µM	126 µM	–	–
DTKNYKQTSV [CRIPT]	4.68 µM	8.51 µM	13.2 µM	3.98 µM	44.7 µM	24.5 µM	–	–
QGLAERISVL [PRKD2]	–	–	–	–	–	–	16.6 µM	Kd [2, 18]: 214 µM; Kd [3, 19]: 170 µM; Kd [4, 20]: 41.7 µM
KKKKGQYYFV [HtrA2-Opt]	–	–	–	–	–	–	–	pKd, measured in literature [7]: 8.42; pKd, measured in literature [8]: 7.7167
LDSQIQETSI [MAP4]	1.86 µM	42.7 µM	2.75 µM	110 µM	229 µM	35.5 µM	–	–
EKPIDSETKM [SLC1A3]	–	–	–	–	–	–	6.61 µM	–
DDENIRTSDV [PLEKHA2]	–	–	–	–	–	–	14.5 µM	Kd [2, 18]: 34.7 µM; Kd ([5]; holdup affinity of the PBM peptide of the named protein, sheet PBMcomplexome, lower sub-table, 3.5 appears to be the floor for no detectable binding, read-out: affinity of PBM to DLG1_1 (pKd) (converted)): 158 µM; Kd [3, 19]: 178 µM; Kd [4, 20]: 17.8 µM; Kd ([6]; holdup affinity of the PBM peptide of the named protein, sheet PBMcomplexome, lower sub-table, 3.5 appears to be the floor for no detectable binding, read-out: affinity of PBM to SCRIB_2 (pKd) (converted)): 178 µM
CC(C)C[C@H](NC(=O)[C@H](CC(=O)O)NC(=O)[C@@H]1CCCN1C(=O)[C@@H](NC(=O)CNC(=O)[C@H](CCC(=O)O)NC(=O)[C@H](CO)NC(=O)[C@H](CO)NC(=O)[C@H](CC(N)=O)NC(=O)[C@H](CC(C)C)NC(=O)[C@@H](N)CC(N)=O)C(C)C)C(=O)N[C@@H](CC(C)C)C(=O)N[C@H](C(=O)O)C(C)C [SARS-CoV-E]	–	–	–	–	–	–	–	Kd [9]: 253 µM
PPRQRSETQV [HPV82E6]	–	–	–	–	–	–	–	Kd [10]: 13.7 µM
EVVHTPETSV [SLC16A3]	7.08 µM	50.1 µM	8.32 µM	145 µM	135 µM	33.1 µM	–	–
TBCD	–	–	–	–	–	–	–	Difference log2 E6/Ctrl ([11]; E6 cell line vs control): 0.5689; Ratio E6/Ctrl ([11]; E6 cell line vs control): 1.483; Difference log2 dPBM/E6 ([11]; dPBM cell line vs E6 cell line): -3.03; Ratio dPBM/E6 ([11]; dPBM cell line vs E6 cell line): 0.1225; Difference log2 dPBM/Ctrl ([11]; dPBM cell line vs control): -2.461; Ratio dPBM/Ctrl ([11]; dPBM cell line vs control): 0.1817
TSQESEDTYL [TBC1D10A]	–	–	–	–	–	–	5.37 µM	Kd [3, 19]: 102 µM
